Experimental data from PMC11210812, “Assessment of polymeric mucin–drug interactions” (PLOS ONE, 2024).

What was measured:
Experiment in all cases: mucin fluorescence quenching, Lineweaver-Burk fit
Type in all cases: binding
MUC2 = biological target: T1, MUC2 (Homo sapiens, UniProt Q02817); conditions: for Kd (μM) / MUC2: PBS pH 7.4, 37 °C, unreliable (Kd above highest concentration tested)
T1 construct: native secreted polymeric gel-forming mucin, O-glycosylated, disulfide-linked; purified from human cell culture by two-step CsCl density gradient
From the text: mucin fluorescence quenching, Lineweaver-Burk fit on MUC2

MUC5B = biological target: T2, MUC5B (Homo sapiens, UniProt Q9HC84); conditions: for Kd (μM) / MUC5B: PBS pH 7.4, 37 °C, unreliable (Kd above highest concentration tested)
T2 construct: native secreted polymeric gel-forming mucin, O-glycosylated, disulfide-linked; purified from human cell culture by two-step CsCl density gradient
From the text: mucin fluorescence quenching, Lineweaver-Burk fit on MUC5B

MUC5AC = biological target: T3, MUC5AC (Homo sapiens, UniProt P98088); conditions: for Kd (μM) / MUC5AC: PBS pH 7.4, 37 °C, unreliable (Kd above highest concentration tested)
T3 construct: native secreted polymeric gel-forming mucin, O-glycosylated, disulfide-linked; purified from human cell culture by two-step CsCl density gradient
From the text: mucin fluorescence quenching, Lineweaver-Burk fit on MUC5AC

Kd (MUC2)	Kd (MUC5AC)	Structure (SMILES)	Kd (MUC5B)	Kd (μM) / MUC2 (MUC2; drug 0-200 μM)	Kd (μM) / MUC5B (MUC5B; drug 0-200 μM)	further results
136 ± 12.1 µM	124 ± 1.5 µM	O=c1[nH]cc(F)c(=O)[nH]1 [5-Fluorouracil]	143 ± 17 µM	–	–	–
–	–	Cc1cc(=O)n(-c2ccccc2)n1C [Antipyrine]	–	393.1 ± 26.2 µM	386.0 ± 49.3 µM	Kd (μM) / MUC5AC (MUC5AC; drug 0-200 μM): 302.0 ± 6.7 µM
–	–	COC1=CC(=O)C[C@@H](C)[C@]12Oc1c(Cl)c(OC)cc(OC)c1C2=O [Griseofulvin]	–	–	–	Kd (μM) / MUC2 (MUC2; drug 0-20 μM): 45.3 ± 9.6 µM; Kd (μM) / MUC5B (MUC5B; drug 0-20 μM): 29.9 ± 5.0 µM; Kd (μM) / MUC5AC (MUC5AC; drug 0-20 μM): 25.4 ± 1.6 µM
163 ± 39.1 µM	87.6 ± 7 µM	CC(=O)O[C@H]1C(=O)[C@@]2(C)[C@H]([C@H](OC(=O)c3ccccc3)[C@]3(O)C[C@H](OC(=O)[C@H](O)[C@@H](NC(=O)c4ccccc4)c4ccccc4)C(C)=C1C3(C)C)[C@]1(OC(C)=O)CO[C@@H]1C[C@@H]2O [Paclitaxel]	–	–	288.0 ± 24.9 µM	–
–	–	CO[C@H]1/C=C/O[C@@]2(C)Oc3c(C)c(O)c4c(O)c(c(/C=N/N5CCN(C)CC5)c(O)c4c3C2=O)NC(=O)/C(C)=C\C=C\[C@H](C)[C@H](O)[C@@H](C)[C@@H](O)[C@@H](C)[C@H](OC(C)=O)[C@@H]1C [Rifampicin]	–	–	–	Kd (μM) / MUC2 (MUC2; drug 0-10 μM): 49.7 ± 6.2 µM; Kd (μM) / MUC5B (MUC5B; drug 0-10 μM): 44.5 ± 7.1 µM; Kd (μM) / MUC5AC (MUC5AC; drug 0-10 μM): 15.0 ± 1.5 µM

Structure (SMILES)	Kd (MUC2)	Kd (MUC5AC)	Kd (MUC5B)	Kd (μM) / MUC2 (MUC2; drug 0-200 μM)	Kd (μM) / MUC5B (MUC5B; drug 0-200 μM)	further results
Cn1c(=O)c2[nH]cnc2n(C)c1=O [Theophylline]	–	185 ± 5.6 µM	189 ± 7.2 µM	390.2 ± 46.5 µM	–	–
